The record followed here is US10160762B2, “6-alkyl dihydropyrazolopyrimidinone compounds as PDE2 inhibitors” (Merck Sharp & Dohme Corp., priority 2015, dated 2018).

Structures are written as SMILES. Like-named read-outs stand apart in the source and are kept apart here.

The target in one experiment is T1, Rhesus PDE2A3 (Macaca mulatta, UniProt B3VTJ2).
T1 construct: made in house; host or cells: AD293 cells, transient transfection; supernatant of sonicated lysate
T1 sequence (B3VTJ2 1-941): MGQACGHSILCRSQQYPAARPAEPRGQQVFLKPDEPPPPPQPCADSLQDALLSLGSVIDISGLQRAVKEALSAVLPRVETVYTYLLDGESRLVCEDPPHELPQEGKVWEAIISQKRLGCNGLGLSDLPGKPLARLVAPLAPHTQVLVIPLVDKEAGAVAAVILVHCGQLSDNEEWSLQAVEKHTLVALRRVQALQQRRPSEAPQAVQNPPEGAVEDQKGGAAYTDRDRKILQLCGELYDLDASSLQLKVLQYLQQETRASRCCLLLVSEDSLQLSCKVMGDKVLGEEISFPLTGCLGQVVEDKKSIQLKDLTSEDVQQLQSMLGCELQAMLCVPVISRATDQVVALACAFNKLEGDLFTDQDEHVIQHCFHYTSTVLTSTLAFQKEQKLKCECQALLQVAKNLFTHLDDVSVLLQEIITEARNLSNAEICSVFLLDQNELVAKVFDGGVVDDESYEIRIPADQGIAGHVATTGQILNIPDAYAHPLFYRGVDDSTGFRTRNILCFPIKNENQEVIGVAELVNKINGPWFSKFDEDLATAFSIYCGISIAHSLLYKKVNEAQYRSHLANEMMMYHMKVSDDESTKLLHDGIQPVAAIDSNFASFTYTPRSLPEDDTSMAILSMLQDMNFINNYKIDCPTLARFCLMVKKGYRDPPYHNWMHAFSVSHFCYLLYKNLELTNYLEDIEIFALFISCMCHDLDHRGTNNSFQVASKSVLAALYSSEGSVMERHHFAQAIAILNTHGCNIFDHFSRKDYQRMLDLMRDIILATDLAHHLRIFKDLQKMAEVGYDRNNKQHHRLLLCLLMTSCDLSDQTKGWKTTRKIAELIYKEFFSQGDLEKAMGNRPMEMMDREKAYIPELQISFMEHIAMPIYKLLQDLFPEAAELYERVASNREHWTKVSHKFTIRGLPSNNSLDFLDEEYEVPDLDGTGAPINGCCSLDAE
Description: PDE2 fluorescence polarization (IMAP FP) inhibition assay, rhesus PDE2A3. The format is biochemical, rhesus macaque. As to the method:
The activity of the compounds in accordance with the present invention as PDE2 inhibitors may be readily determined using a fluorescence polarization (FP) methodology (Huang, W., et al., J. Biomol Screen, 2002, 7: 215).
The PDE2 inhibitory activity of the compounds of the present invention was determined in accordance with the following experimental method. Rhesus PDE2A3 was amplified from rhesus macaque brain cDNA (Biochain Institute, Hayward, Calif.) using primers based on human PDE2A sequence (accession NM_002599.3) where the forward primer containing a Kozak consensus was 5′-[…]-3′ and the reverse primer was 5′-[…]-3′. Amplification with Easy-A High-Fidelity PCR cloning enzyme (Stratagene, La Jolla, Calif.) was 95° C. for 2 minutes followed by thirty three cycles of 95° C. for 40 seconds, 52° C. for 30 seconds, and 72° C. for 2 minutes 48 seconds. Final extension was 72° C. for 7 minutes. The PCR product was TA cloned into pcDNA3.3-TOPO (Invitrogen, Carlsbad, Calif.) according to standard protocol. A consensus sequence was developed from multiple clones and then deposited into GenBank (EU812167). AD293 cells (Stratagene, La Jolla, Calif.) with 70-80% confluency were transiently transfected with rhesus PDE2A3/pcDNA3.3-TOPO using Lipofectamine 2000 according to manufacturer specifications (Invitrogen, Carlsbad, Calif.). Cells were harvested 48 hours post-transfection and lysed by sonication (setting 3, 10×5 sec pulses) in a buffer containing 20 mM HEPES pH 7.4, 1 mM EDTA and Complete Protease Inhibitor Cocktail Tablets (Roche, Indianapolis, Ind.). Lysate was collected by centrifugation at 75,000×g for 20 minutes at 4° C. and supernatant utilized for evaluation of PDE2 activity. The fluorescence polarization assay for cyclic nucleotide phosphodiesterases was performed using an IMAP® FP kit supplied by Molecular Devices, Sunnyvale, Calif. (product #R8139). […] Assays were performed at room temperature in 384-well microtiter plates with an incubation volume of 20.2 μL. Solutions of test compounds were prepared in DMSO and serially diluted with DMSO to yield 8 μL of each of 10 solutions differing by 3-fold in concentration, at 32 serial dilutions per plate. […] 0% of inhibition is determined by using DMSO (1% final concentrations).
A Labcyte Echo 555 (Labcyte, Sunnyvale, Calif.) is used to dispense 200 nL from each well of the titration plate to the 384 well assay plate. Ten microliters of a solution of enzyme (1/2000 final dilution from aliquots; sufficient to produce 20% substrate conversion) was added to the assay plate. Next 10 uL of a separate solution of the substrate FAM-labeled cAMP (50 nM final concentration product # R7506 from Molecular Devices) and the activator cGMP (1 uM final concentration), prepared in the assay buffer (10 mM Tris HCl, pH 7.2, 10 mM MgCl2, 0.05% NaN3 0.01% Tween-20, and 1 mM DTT) was added to the assay plate and shaken to mix. The reaction is allowed to proceed at room temperature for 60 minutes. A binding solution is then made from the kit components, comprised of 80% Solution A, 20% Solution B and binding reagent at a volume of 1/600 the total binding solution. The enzymatic reaction is stopped by addition of 60 μL of the binding solution to each well of the assay plates and the plates are sealed and shaken for 30 seconds. The plate was incubated at room temperature for at least one hour prior to determining the fluorescence polarization (FP). The parallel and perpendicular fluorescence of each well of the plate was measured using a Tecan Genios Pro plate reader (Tecan, Switzerland) or Perkin Elmer EnVision™ plate reader (Waltham, Mass.). Fluorescence polarization (mP) was calculated from the parallel (S) and perpendicular (P) fluorescence of each sample well and the analogous values for the median control well, containing only substrate (So and Po), using the following equation: Polarization(mP)=1000*(S/So−P/Po)/(S/So+P/Po).
Background: Polarisation of emitted light reports the rotation of a fluorescent probe.

For a further experiment, the target named is T2, human PDE2A1 (Homo sapiens, UniProt O00408).
T2 construct: GST; purchased BPS Bioscience (San Diego, Calif.) 60020; host or cells: insect cells
Description: IMAP FP PDE assay, human PDE2A1. The format is biochemical. The note with it: Lab B; read-out: Human PDE2 Ki (nM) Lab B. The method in brief: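 FP (IMAP) read after 60 min room-temperature reaction of insect-cell GST-human PDE2A1 with 50 nM FAM-cAMP plus 1000 nM cGMP (pH 7.2 Tris, Mg2+, DTT). Compounds titrated 3-fold over ten points. Apparent Ki derived assuming KM of 10,000 nM; enzyme at 20% substrate turnover.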

Setting [1] is: Lab A, read-out: Rhesus PDE2 Ki (nM) Lab A.
Setting [2] is: Lab B, read-out: Rhesus PDE2 Ki (nM) Lab B.

T2 sequence (O00408 1-920 isoform O00408-2): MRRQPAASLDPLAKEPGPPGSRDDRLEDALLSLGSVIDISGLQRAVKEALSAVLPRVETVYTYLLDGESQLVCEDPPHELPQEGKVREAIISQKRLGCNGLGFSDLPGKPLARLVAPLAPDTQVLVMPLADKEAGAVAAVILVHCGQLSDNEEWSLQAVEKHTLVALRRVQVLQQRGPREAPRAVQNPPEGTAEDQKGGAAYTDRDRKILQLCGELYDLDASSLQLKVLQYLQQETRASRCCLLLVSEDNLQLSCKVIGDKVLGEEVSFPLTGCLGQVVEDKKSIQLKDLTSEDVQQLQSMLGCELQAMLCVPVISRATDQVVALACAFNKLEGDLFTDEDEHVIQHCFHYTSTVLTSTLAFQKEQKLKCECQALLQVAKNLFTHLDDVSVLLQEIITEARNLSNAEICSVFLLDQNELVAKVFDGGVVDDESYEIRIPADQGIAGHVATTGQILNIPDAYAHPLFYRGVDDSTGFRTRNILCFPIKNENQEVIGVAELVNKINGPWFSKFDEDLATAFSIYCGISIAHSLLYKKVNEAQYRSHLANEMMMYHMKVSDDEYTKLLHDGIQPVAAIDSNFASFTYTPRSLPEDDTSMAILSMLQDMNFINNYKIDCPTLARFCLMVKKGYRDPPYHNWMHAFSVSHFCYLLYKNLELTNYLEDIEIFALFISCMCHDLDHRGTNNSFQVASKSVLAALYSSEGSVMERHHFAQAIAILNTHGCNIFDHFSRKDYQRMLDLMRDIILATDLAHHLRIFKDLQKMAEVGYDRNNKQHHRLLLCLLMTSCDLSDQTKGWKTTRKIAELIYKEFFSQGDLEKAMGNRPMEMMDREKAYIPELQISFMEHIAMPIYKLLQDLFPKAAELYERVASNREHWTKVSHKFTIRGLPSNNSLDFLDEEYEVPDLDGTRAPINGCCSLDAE

In general, Ki refers to the dissociation constant of the complex between target and ligand, obtained from inhibition or displacement. Regarding `Cc1nc2c(c(C)nn2C(CCCc2ccccc2)c2sc(C)nc2C)c(=O)[nH]1` (stereo not drawn) [Example 339, 1-[1-(2,4-dimethyl-1,3-thiazol-5-yl)-4-phenylbutyl]-3,6-dimethyl-1,5-dihydro-4H-pyrazolo[3,4-d]pyrimidin-4-one], on Rhesus PDE2A3 (setting [1]), the inhibition constant (Ki) worked out at 292 nM. Consider `Cc1nc2c(c(CS(C)(=O)=O)nn2C(C)c2ccc(C(F)(F)F)cc2)c(=O)[nH]1` (single isomer, unassigned) [Example 272], for which, at Rhesus PDE2A3 (setting [2]), the Ki turned out to be 1210 nM. Still for that read-out and setting: next, `CC(=O)OCc1nn(C(C)c2ccc(C(F)(F)F)cc2)c2nc(C)[nH]c(=O)c12` (stereo not drawn) [Example 319, (6-Methyl-4-oxo-1-(1-(4-(trifluoromethyl)phenyl)ethyl)-4,5-dihydro-1H-pyrazolo[3,4-d]pyrimidin-3-yl)methyl acetate]: 283 nM; `COc1cccc(Cc2nc3c(c(CF)nn3C(C)c3ccc(C(F)(F)F)cc3)c(=O)[nH]2)c1` (single isomer, unassigned) [Example 220, (R)- or (S)-3-(Fluoromethyl)-6-(3-methoxybenzyl)-1-(1-(4-(trifluoromethyl)phenyl)ethyl)-1H-pyrazolo[3,4-d]pyrimidin-4(5H)-one]: 189 nM.

As to `Cc1nc2c(c(CC(F)(F)F)nn2C(c2ccc(C(F)(F)F)cc2)C(C)(C)C)c(=O)[nH]1` (single isomer, unassigned) [Example 56, (R)- or (S)-1-(2,2-Dimethyl-1-(4-(trifluoromethyl)phenyl)propyl)-6-methyl-3-(2,2,2-trifluoroethyl)-1H-pyrazolo[3,4-d]pyrimidin-4(5H)-one], the inhibition constant (Ki) at Rhesus PDE2A3 (setting [2]) was 6020 nM. On the same count and under the same terms, next, `Cc1nc2c(c(CF)nn2C(c2ccc(C(F)(F)F)cc2)C2(C)CC2)c(=O)[nH]1` (single isomer, unassigned) [Example 208, (R)- or (S)-3-(Fluoromethyl)-6-methyl-1-((1-methylcyclopropyl)(4-(trifluoromethyl)phenyl)methyl)-1H-pyrazolo[3,4-d]pyrimidin-4(5H)-one]: 149 nM. On to `Cc1nc2c(c(C)nn2CC(C)(O)c2ccc(C(F)(F)F)cc2)c(=O)[nH]1` (stereo not drawn) [Example 336, 1-(2-Hydroxy-2-(4-(trifluormethyl)phenyl)propyl)-3,6-dimethyl-1H-pyrazolo[4-d]pyrimidin-4(5H)-one], for which the inhibitory constant (Ki) on Rhesus PDE2A3 (setting [1]) was above 1000 nM; on Rhesus PDE2A3 (setting [2]), 7660 nM. Regarding `Cc1nc2c(c(C)nn2CC(=O)Nc2ccc(C(F)(F)F)cc2)c(=O)[nH]1` [Example 337, 2-(3,6-Dimethyl-4-oxo-4,5-dihydro-1H-pyrazolo[3,4-d]pyrimidin-1-yl)-N-(4-(trifluoromethyl)phenyl)acetamide], at Rhesus PDE2A3 (setting [1]), the inhibitory constant (Ki) is above 1000 nM.

Turning to `Cc1nc2c(c(CCO)nn2C(C)c2ccc(C(F)(F)F)cc2)c(=O)[nH]1` (single isomer, unassigned) [Example 249], the inhibition constant Ki at Rhesus PDE2A3 (setting [2]) was 245 nM. `Cc1nn(C(C)c2ccc(C(F)(F)F)cc2)c2nc(C(C)O)[nH]c(=O)c12` (stereo not drawn) [Example 29, 6-(1-Hydroxyethyl)-3-methyl-1-(1-(4-(trifluoromethyl)phenyl)ethyl)-1H-pyrazolo[3,4-d]pyrimidin-4(5H)-one]: the inhibition constant Ki at Rhesus PDE2A3 (setting [1]) came out at 583 nM. On to `CC(c1ccc(C(F)(F)F)cc1)n1nc(-c2nnco2)c2c(=O)[nH]c(CC3CCCC3)nc21` (single isomer, unassigned) [Example 342, (R) or (S)-6-(Cyclopentylmethyl)-3-(1,3,4-oxadiazol-2-yl)-1-(1-(4-(trifluoromethyl)phenyl)ethyl)-1,5-dihydro-4H-pyrazolo[3,4-d] pyrimidin-4-one], for which, on human PDE2A1, the Ki stood at 2.5 nM. `Cc1nc2c(c(C(F)F)nn2C(C)c2ccc(C(F)(F)F)c(F)c2)c(=O)[nH]1` (single isomer, unassigned) [Example 167, (R)- or (S)-3-(Difluoromethyl)-1-(1-(3-fluoro-4-(trifluoromethyl)phenyl)ethyl)-6-methyl-1H-pyrazolo[3,4-d]pyrimidin-4(5H)-one]: the inhibition constant Ki at human PDE2A1 was 256 nM.

In the case of `Cc1nc2c(c(CO)nn2C(C)c2ccc(C(F)(F)F)nc2)c(=O)[nH]1` (single isomer, unassigned) [Example 130, (R)- or (S)-3-(Hydroxymethyl)-6-methyl-1-(1-(6-(trifluoromethyl)pyridin-3-yl)ethyl)-1H-pyrazolo[3,4-d]pyrimidin-4(5H)-one], at human PDE2A1, the Ki was at least 2960 nM. Same read-out and setting: with `Cc1nc2c(c(CO)nn2C(C)c2ccc(C(F)(F)F)c(I)c2)c(=O)[nH]1` (single isomer, unassigned) [Example 138, (R)- or (S)-3-(Hydroxymethyl)-1-(1-(3-iodo-4-(trifluoromethyl-)phenyl)ethyl)-6-methyl-1,5-dihydro-4H-pyrazolo[3,4-d]pyrimidin-4-one] the figure was above 2960 nM; with `CC(c1ccc(C(F)(F)F)cc1)n1nc(-c2nnco2)c2c(=O)[nH]c(CC3CC3)nc21` (single isomer, unassigned) [Example 340, (R)- or (S)-6-(Cyclopropylmethyl)-3-(1,3,4-oxadiazol-2-yl)-1-(1-(4-(trifluoromethyl)phenyl)ethyl)-1,5-dihydro-4H-pyrazolo[3,4-d] pyrimidin-4-one], 2.2 nM; with `Cc1nc2c(c(CO)nn2C(C)c2c(F)cc(C(F)(F)F)cc2F)c(=O)[nH]1` (single isomer, unassigned) [Example 136], 5 nM. On the same count and under the same terms, next, `Cc1nc2c(c(CC(F)(F)F)nn2C(c2ccc(C(F)(F)F)c(F)c2)C(C)(C)C)c(=O)[nH]1` (single isomer, unassigned) [Example 61, (S)- or (R)-1-(1-(3-Fluoro-4-(trifluoromethyl)phenyl)-2,2-dimethylpropyl)-6-methyl-3-(2,2,2-trifluoroethyl)-1H-pyrazolo[3,4-d]pyrimidin-4(5H)-one]: 55 nM.
